In experiment [1] the test system is Molm-14 human acute myeloid leukemia cell with FLT3-ITD mutation. Kind of experiment: Molm-14 cell proliferation assay (CellTiter 96). The settings on record: Molm-14 cells, 72 hours treatment, CellTiter96, read-out: anti-proliferation activity Molm-14 (FLT3-ITD), IC50 ranking. It is filed as cell-based. As for the experimental part: (§1) Inhibitions of cell growths by compounds were measured using CellTiter™-96 assay. The cytotoxicities of compounds of the invention were evaluated in cell line panels with different signaling pathway dependencies, including MV4-11 human acute myeloid leukemia cell with FLT3-ITD mutation, Molm-14 human acute myeloid leukemia cell with FLT3-ITD mutation, THP-1 human acute monocytic leukemia cell with NRAS G12D mutation, A375 melanoma cell with BRAF V600E mutation, and HCC827 NSCLC cell with EGFR exon 19 deletion mutation.
The compounds disclosed herein were tested in Molm-14 cell proliferation assay to determine their cellular potencies against FLT3 signal pathway dependent cell growths. Molm-14 cells are human acute myeloid leukemia (AML) cells harboring ligand-independent FLT3-ITD activating mutation, which renders the abnormal proliferation of the AML cells FLT3 signaling pathway dependent. Inhibition of FLT3 kinase activity will result in reduced growths and/or cell deaths. […] Briefly, cells were grown in RPMI 1640 medium supplemented with 10% heat inactivated fetal bovine serum and incubated at 37° C. in 5% CO2 atmosphere. Cells were allowed to expand until reaching saturation, at which point they were sub-cultured or harvested for assay use.
(§2) MV4-11, Molm-14, THP-1, A375, and HCC827 cells were seeded into 96-well plates at 6500, 25000, 5000, 2000 and 8000 cells/well, respectively, and incubated at 37° C., 5% CO2 overnight. Then, these seeded cells were treated with increasing concentrations of the test compounds and incubated for another 72 hours. At the end of the incubation, CellTiter96® AQueous One Solution Reagent (Promega, […]) was added and incubated for the additional 2˜4 hours. Cell viability was determined by measuring absorbance at 490 nm using EMax® microplate reader (Molecular Devices, San Jose, CA, USA).

The subject of experiment [2] is MV4-11 human acute myeloid leukemia cell with FLT3-ITD mutation. Kind of experiment: MV4-11 cell proliferation assay (CellTiter 96). The settings on record: MV4-11 cells, 72 hours treatment, CellTiter96, read-out: anti-proliferation activity MV4-11 (FLT3-ITD), IC50 ranking. It counts as cell-based. As for the experimental part: as §1
The compounds disclosed herein were tested in MV4-11 cell proliferation assay to determine their cellular potencies against FLT3 signal pathway dependent cell growths. MV4-11 cells are human acute myeloid leukemia (AML) cells harboring ligand-independent FLT3-ITD activating mutation, which renders the abnormal proliferation of AML cells FLT3 signaling pathway dependent. Inhibition of FLT3 kinase activity will result in reduced growths and/or cell deaths. MV4-11 cells (catalog #CRL-9591) were obtained from the American Type Culture Collection (ATCC, Manassas, VA). Briefly, cells were grown in IMDM medium supplemented with 10% heat inactivated fetal bovine serum and incubated at 37° C. in 5% CO2 atmosphere. Cells were allowed to expand until reaching saturation, at which point they were sub-cultured or harvested for assay use.
as §2

Experiment [3] relates to THP-1 human acute monocytic leukemia cell with NRAS G12D mutation. Kind of experiment: THP-1 cell proliferation assay (counter screen). It counts as cell-based. The settings on record: THP-1 cells, 72 hours treatment, CellTiter96, read-out: anti-proliferation activity THP-1 NRAS N12D, IC50 ranking. As for the experimental part: as §1
THP-1 cells are human acute monocytic leukemia cells with NRAS G12D mutation, which renders the cell growth independent of class III RTKs signaling. THP-1 cells (catalog #TIB-202) were obtained from the ATCC. Briefly, cells were grown in RPMI 1640 medium supplemented with 10% heat inactivated fetal bovine serum and 0.05 mM 2-mercaptoethanol and incubated at 37° C. in 5% CO2 atmosphere. Cells were allowed to expand until reaching saturation, at which point they were sub-cultured or harvested for assay use.
as §2
(In general: Counterscreens check selectivity or assay interference.)

The target in a further experiment is T1, FLT3 kinase (Homo sapiens, UniProt P36888).
T1 construct: purchased SignalChem
T1 sequence (P36888 27-993): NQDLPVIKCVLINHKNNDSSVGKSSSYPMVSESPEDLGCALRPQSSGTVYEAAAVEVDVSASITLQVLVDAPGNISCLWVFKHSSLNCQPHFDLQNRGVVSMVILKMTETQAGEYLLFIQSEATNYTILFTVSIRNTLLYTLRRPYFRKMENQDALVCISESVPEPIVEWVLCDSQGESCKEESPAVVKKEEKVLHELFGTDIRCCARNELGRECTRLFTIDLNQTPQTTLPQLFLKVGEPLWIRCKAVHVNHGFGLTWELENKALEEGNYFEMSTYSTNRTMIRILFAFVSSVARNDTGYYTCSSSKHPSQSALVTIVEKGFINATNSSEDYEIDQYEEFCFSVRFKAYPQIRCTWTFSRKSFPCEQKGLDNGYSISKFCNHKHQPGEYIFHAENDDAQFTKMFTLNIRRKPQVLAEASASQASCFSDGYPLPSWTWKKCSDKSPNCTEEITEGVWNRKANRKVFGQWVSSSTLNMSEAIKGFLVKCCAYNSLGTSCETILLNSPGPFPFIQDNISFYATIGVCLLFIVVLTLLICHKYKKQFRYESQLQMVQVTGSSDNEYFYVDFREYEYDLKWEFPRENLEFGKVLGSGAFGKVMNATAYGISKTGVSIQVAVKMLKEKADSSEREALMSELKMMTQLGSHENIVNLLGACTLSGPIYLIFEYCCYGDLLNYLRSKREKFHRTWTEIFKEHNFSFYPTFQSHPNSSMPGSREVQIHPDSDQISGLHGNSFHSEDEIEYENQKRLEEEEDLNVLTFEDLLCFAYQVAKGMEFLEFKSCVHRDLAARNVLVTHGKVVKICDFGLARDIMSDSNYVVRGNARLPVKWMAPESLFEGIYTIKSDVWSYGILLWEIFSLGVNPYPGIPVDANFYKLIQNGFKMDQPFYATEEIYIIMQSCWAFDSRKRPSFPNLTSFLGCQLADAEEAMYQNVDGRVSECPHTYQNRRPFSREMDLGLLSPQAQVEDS
Kind of experiment: FLT3 kinase assay (AlphaScreen). The settings on record: read-out: Ranking of IC50 values, FLT3. It is filed as biochemical. How it is done: Inhibition of FLT3 kinase activity by a test compound disclosed herein was estimated by AlphaScreen (PerkinElmer, […]). Standard assay conditions were 1.5 ng of recombinant FLT3 kinase (SignalChem, Richmond, BC, Canada) with 6 ng Biotin-conjugated Poly-(Glu 4: Tyr 1) (Cisbio, Bedford, MA, USA) in the assay buffer (10 μM ATP, 10 mM MOPs, pH7.0, 0.21 mM EDTA, 0.5% glycerol, 1 mg/mL BSA, 0.01% 2-mercaptoethanol, 0.001% Brij35, 10 mM MgCl2) in a final volume of 25 μL. Reactions were incubated at 30° C. for 30 min and stopped by adding 5 μL of 50 mM EDTA. Analysis of resulting product using an AlphaScreen kit and counted with Enspire Alpha (PerkinElmer, Waltham, MA, USA). […] The IC50 values of inhibitors were determined after carrying out assays with each compound at serially diluted concentrations in duplication. The results were analyzed using linear regression software (GraphPad Prism 5; GraphPad Software Inc.)
For orientation: Bead proximity is the source of the signal in Alpha formats.

Molecules are shown by their SMILES. Read-outs that look alike come from different tables or passages of the source.

As for `Cn1ncc2ccc(-c3n[nH]c4c3Cc3sc(-c5cnc(N)nc5)cc3-4)cc21` [Compound 45, 5-(3-(1-methyl-1H-indazol-6-yl)-1,4-dihydrothieno [2′,3′:4,5]cyclopenta[l,2-c]pyrazol-6-yl)pyrimidin-2-amine], the IC50 in experiment [1] (Homo sapiens) is less than 30 nM; in experiment [2] (Homo sapiens, MV4-11, 72 h) it was less than 30 nM; in experiment [3] (Homo sapiens) it was more than 10 µM; on FLT3 kinase it was less than 1 nM.
As to `Cn1ncc2ccc(-c3n[nH]c4c3Cc3sc(N5CCOCC5)cc3-4)cc21` [Compound 78, 4-(3-(1-methyl-1H-indazol-6-yl)-1,4-dihydro-thieno[2′,3′:4,5]cyclopenta [1,2-c]pyrazol-6-yl) morpholine], the IC50 was less than 30 nM in experiment [1] (Homo sapiens); less than 30 nM in experiment [2] (Homo sapiens, MV4-11, 72 h); more than 10 µM in experiment [3] (Homo sapiens); less than 1 nM on FLT3 kinase.
`Cn1ncc2ccc(-c3n[nH]c4c3Cc3sc(-c5ccc(CN6CCNC(=O)C6)cc5)cc3-4)cc21` [Compound 63, 4-(4-(3-(1-methyl-1H-indazol-6-yl)-1,4-dihydro-thieno[2′,3′:4,5]cyclopenta [1,2-c]pyrazol-6-yl)benzyl)piperazin-2-one]: the IC50 in experiment [1] (Homo sapiens) was less than 30 nM; in experiment [2] (Homo sapiens, MV4-11, 72 h) it was less than 30 nM; in experiment [3] (Homo sapiens), more than 10 µM; on FLT3 kinase, 1 to 10 nM.
Turning to `Cc1cc(-c2cc3c(s2)Cc2c(-c4ccc5cnn(C)c5c4)n[nH]c2-3)ccn1` [Compound 17, 3-(1-methyl-1H-indazol-6-yl)-6-(2-methylpyridin-4-yl)-1,4-dihydrothieno [2′,3′:4,5]cyclopenta[1,2-c] pyrazole], the IC50 was 30 to 100 nM in experiment [1] (Homo sapiens); less than 30 nM in experiment [2] (Homo sapiens, MV4-11, 72 h); more than 10 µM in experiment [3] (Homo sapiens); 1 to 10 nM on FLT3 kinase.
Consider `COc1cc(-c2cc3c(s2)Cc2c(-c4ccc5cnn(C)c5c4)n[nH]c2-3)ccc1CN1CCOCC1` [Compound 24, 4-(2-methoxy-4-(3-(1-methyl-1H-indazol-6-yl)-1,4-dihydrothieno[2′,3′:4,5]cyclopenta[1,2-c]pyrazol-6-yl)benzyl)morpholine], for which the IC50 in experiment [1] (Homo sapiens) was 30 to 100 nM; in experiment [2] (Homo sapiens, MV4-11, 72 h) it was less than 30 nM; in experiment [3] (Homo sapiens) it was more than 10 µM; at FLT3 kinase, less than 1 nM.
On to `c1cc(-c2cc3c(s2)Cc2c(-c4ccc5cn[nH]c5c4)n[nH]c2-3)ccc1CN1CCOCC1` [Compound 6, 4-(4-(3-(1H-indazol-6-yl)-1,4-dihydrothieno[2′,3′:4,5]cyclopenta[1,2-c]pyrazol-6-yl)benzyl)morpholine], for which the IC50 in experiment [1] (Homo sapiens) is less than 30 nM; in experiment [2] (Homo sapiens, MV4-11, 72 h) it was less than 30 nM; in experiment [3] (Homo sapiens), more than 10 µM; at FLT3 kinase it was less than 1 nM.
As for `C[C@@H]1CN(Cc2ccc(-c3cc4c(s3)Cc3c(-c5ccc6cn[nH]c6c5)n[nH]c3-4)cn2)C[C@H](C)O1` [Compound 16, (2R,6S)-4-((5-(3-(1H-indazol-6-yl)-1,4-dihydro-thieno[2′,3′:4,5]cyclopenta [1,2-c]pyrazol-6-yl)pyridin-2-yl)methyl)-2,6-dimethylmorpholine], the IC50 in experiment [1] (Homo sapiens) was less than 30 nM; in experiment [2] (Homo sapiens, MV4-11, 72 h) it was less than 30 nM; in experiment [3] (Homo sapiens), more than 10 µM; at FLT3 kinase it was less than 1 nM.
As to `Cc1ccc(-c2cc3c(s2)Cc2c(-c4ccc5cnn(C)c5c4)n[nH]c2-3)cn1` [Compound 33, 3-(1-methyl-1H-indazol-6-yl)-6-(6-methylpyridin-3-yl)-1,4-dihydrothieno [2′,3′:4,5]cyclopenta [1,2-c]pyrazole], the IC50 was 30 to 100 nM in experiment [1], 30 to 100 nM in experiment [2], more than 10 µM in experiment [3] and less than 1 nM at FLT3 kinase.
As for `Cn1ncc2ccc(-c3n[nH]c4c3Cc3sc(-c5csc(C(=O)N6CCOCC6)c5)cc3-4)cc21` [Compound 48, (4-(3-(1-methyl-1H-indazol-6-yl)-1,4-dihydro-thieno[2′,3′:4,5]cyclopenta [1,2-c]pyrazol-6-yl)thiophen-2-yl) (morpholino)methanone], the IC50 in experiment [1] (Homo sapiens) was less than 30 nM; in experiment [2] (Homo sapiens, MV4-11, 72 h), less than 30 nM; in experiment [3] (Homo sapiens), more than 10 µM; on FLT3 kinase, less than 1 nM.
As to `Cn1ncc2ccc(-c3n[nH]c4c3Cc3sc(-c5ccc(CN6CCOCC6)nc5)cc3-4)cc21` [Compound 10, 4-((5-(3-(1-methyl-1H-indazol-6-yl)-1,4-dihydro-thieno[2′,3′:4,5]cyclopenta [1,2-c]pyrazol-6-yl)pyridin-2-yl)methyl)morpholine], the IC50 in experiment [1] (Homo sapiens) is less than 30 nM; in experiment [2] (Homo sapiens, MV4-11, 72 h), less than 30 nM; in experiment [3] (Homo sapiens), more than 10 µM; at FLT3 kinase, less than 1 nM.
Consider `Cn1ncc2ccc(-c3n[nH]c4c3Cc3sc(-c5cccc(CN6CCOCC6)c5)cc3-4)cc21` [Compound 13, 4-(3-(3-(1-methyl-1H-indazol-6-yl)-1,4-dihydro-thieno[2′,3′:4,5]cyclopenta [1,2-c]pyrazol-6-yl)benzyl) morpholine], for which the IC50 was 30 to 100 nM in experiment [1] (Homo sapiens); 30 to 100 nM in experiment [2] (Homo sapiens, MV4-11, 72 h); more than 10 µM in experiment [3] (Homo sapiens); 1 to 10 nM on FLT3 kinase.
`Cn1ncc2ccc(-c3n[nH]c4c3Cc3sc(-c5ccc(CN6CCOCC6)cn5)cc3-4)cc21` [Compound 95, 4-((6-(3-(1-methyl-1H-indazol-6-yl)-1,4-dihydro-thieno[2′,3′:4,5]cyclopenta [1,2-c]pyrazol-6-yl)pyridin-3-yl)methyl) morpholine]: the IC50 at FLT3 kinase is less than 1 nM.

The record behind these values is patent US12448394B2, “Heterocyclic pyrazole derivatives as type III receptor tyrosine kinase inhibitors” (DEVELOPMENT CENTER FOR BIOTECHNOLOGY, priority 2019, dated 2025).
